From the NIST ThermoML archive (doi:10.1021/je0496600)

Assay: mn = molality of the nth substance listed, in mol/kg
Conditions: 101.3 kPa, Liquid; for speed of sound: Sing-around technique in a fixed-path interferometer

O=C[O-].[Na+] [sodium methanoate] + O
Conditions | mass density, 298.15 K [kg/m3] | mass density, 308.15 K [kg/m3] | mass density, 318.15 K [kg/m3] | speed of sound, 298.15 K [m/s] | speed of sound, 308.15 K [m/s] | speed of sound, 318.15 K [m/s]
m1 = 0.0263 | 998.164 | 995.129 | 991.308 | 1498.6 | 1521.7 | 1538.3
m1 = 0.0331 | 998.451 | 995.412 | 991.587 | 1499.1 | 1522.1 | 1538.8
m1 = 0.0437 | 998.896 | 995.851 | 992.021 | 1499.7 | 1522.7 | 1539.3
m1 = 0.0497 | 999.147 | 996.099 | 992.265 | 1500.1 | 1523.1 | 1539.6
m1 = 0.057 | 999.452 | 996.397 | 992.559 | 1500.6 | 1523.5 | 1540
m1 = 0.0682 | 999.921 | 996.863 | 993.016 | 1501.2 | 1524.2 | 1540.6
m1 = 0.0747 | 1000.2 | 997.131 | 993.282 | 1501.6 | 1524.5 | 1541
m1 = 0.0811 | 1000.46 | 997.398 | 993.545 | 1502.1 | 1524.9 | 1541.3
m1 = 0.0909 | 1000.88 | 997.799 | 993.945 | 1502.7 | 1525.5 | 1541.9
m1 = 0.0975 | 1001.15 | 998.074 | 994.215 | 1503 | 1525.9 | 1542.4
m1 = 0.1428 | 1003.03 | 999.916 | 996.044 | 1505.9 | 1528.5 | 1544.5
m1 = 0.2955 | 1009.33 | 1006.11 | 1002.18 | 1515.1 | 1536.9 | 1552.5
m1 = 0.4697 | 1016.34 | 1012.98 | 1008.95 | 1525.2 | 1546.2 | 1561.2
m1 = 0.6887 | 1024.99 | 1021.49 | 1017.38 | 1537.7 | 1557.7 | 1572.6
m1 = 0.8366 | 1030.69 | 1027.11 | 1022.93 | 1546 | 1565.3 | 1579
m1 = 0.9653 | 1035.61 | 1031.93 | 1027.66 | 1553.1 | 1571.8 | 1584.9
m1 = 1.139 | 1042.15 | 1038.38 | 1034.04 | 1562.4 | 1580.4 | 1593.2
m1 = 1.233 | 1045.63 | 1041.81 | 1037.43 | 1567.5 | 1585 | 1597.3
m1 = 1.496 | 1055.23 | 1051.27 | 1046.79 | 1581.2 | 1597.5 | 1609.2
m1 = 2.188 | 1079.46 | 1075.15 | 1070.43 | 1615.3 | 1628.8 | 1638.3
m1 = 2.783 | 1099.17 | 1094.61 | 1089.57 | 1642.8 | 1653.9 | 1661.4
m1 = 3.458 | 1120.32 | 1115.48 | 1110.11 | 1671.7 | 1680.4 | 1685.7
m1 = 4.201 | 1142.29 | 1137.22 | 1131.78 | 1701.1 | 1707.2 | 1709.9
m1 = 4.966 | 1163.55 | 1158.26 | 1152.83 | 1729.1 | 1732.7 | 1733.4
m1 = 6.561 | 1204.09 | 1198.4 | 1192.37 | 1779.4 | 1778.7 | 1775.7
m1 = 7.737 | 1230.99 | 1225.05 | 1218.87 | 1811.1 | 1807.6 | 1802
m1 = 8.551 | 1248.27 | 1242.15 | 1235.77 | 1830.5 | 1825.3 | 1818.3
m1 = 10.05 | 1277.62 | 1271.22 | 1264.6 | 1862.1 | 1854.1 | 1844.6
